For experiment [1], the target named is T1, DAO in SK-N-SH neuroblastoma cells (Homo sapiens, UniProt P14920).
T1 construct: endogenous in cells; host or cells: SK-N-SH neuroblastoma cells (ATCC)
Description: Cell-based DAO assay in SK-N-SH cells. The following applies: SK-N-SH 1.25*10^5 cells/well, drug treated for 3.5 hr; for IC50: 50 mM D-serine. More on the design: key to Relative DAO activity normalize to DMSO at Final Conc. 100 uM / Relative DAO activity normalize to DMSO at Final Conc. 10 uM: fraction of DMSO-control DAO activity (1 = DMSO). The method, then: The SK-N-SH neuroblastoma cell line was purchased from American Type Culture Collection (ATCC). It was cultured in MEM media (Invitrogen/GIBCO, Rockville, Md.) supplemented with 10% fetal bovine serum, 1×NEAA (Invitrogen/GIBCO) at 37° C. with 5% CO2 in a humidified atmosphere. Cells were trypsinized and plated into a black 96-well plate (NUNC No. 237108) at a density of 125,000 cells/well in 50 μl before cell-based DAO assay.
The cellular DAO activity assay was using a method modified according to the report of Brandish et al. (Brandish, P. E., et al., A cell-based ultra-high-throughput screening assay for identifying inhibitors of D-amino acid oxidase. J Biomol Screen, 2006. 11(5): p. 481-7). SK-N-SH cells were suspended in assay buffers of HANKS buffer solution (Invitrogen/GIBCO No. 14025-092) with 20 mM HEPES. D-serine of (final concentration 50 mM) was added in each well as the substrate for DAO enzyme. The Amplex Red Hydrogen Peroxide/Proxidase Assay Kit (Molecular Probes/Invitrogen, cat. A22188) was used to measure H2O2 production which diffused across the cell membrane into the assay medium after DAO reaction. After seeding cells into black 96-well plate (Nunc No. 237108, Denmark), 50 μl of SK-N-SH cells (125,000 cells/well) was mixed with 50 μl drug solution (2.5 fold of interesting final concentration) and incubate at 37° C. with 5% CO2 in a humidified atmosphere for 30 minutes. After 30 minutes later, 25 μl of a 5 fold mixture containing D-serine, horseradish peroxidase (HRP), and Amplex Red was added into wells containing 100 μl of cell-drugs mixture and incubated at 37° C. with 5% CO2 in a humidified atmosphere for 3 hours. The final concentration of DMSO is below 1%. The fluorescence signal was then detected in SpectraMax M2e microplate reader (Molecular Devices, USA) with excitation at 544 nm and emission at 590 nm. The optimized assay buffer contained a final concentration of 50 mM D-serine, 0.625 units HRP, and 50 μM Amplex Red in a 125 μl assay volume.

The target in experiment [2] is T2, porcine kidney DAO (Sus scrofa, UniProt P00371).
T2 construct: purchased Sigma-Aldrich; host or cells: porcine kidney
Description: pkDAO enzymatic assay (porcine kidney DAO IC50 assay). In kind it is biochemical. The following applies: D-alanine substrate, pH 8.3, 37° C., without FAD. The method, then:
The DAAO enzymatic activity assay was modified according to the report of Oguri et al (Oguri, S., Screening of d-amino acid oxidase inhibitor by a new multi-assay method. Food chemistry 2007, 100 (2), 616). The DAAO activity was measured by using substrate D-alanine reaction produced hydrogen peroxide (H2O2) to further react with 3-(4-hydroxyphenyl) propionic acid (HPPA). The HPPA were oxidized by H2O2 and peroxidase to become the fluorogenic dimer which was measured to represent the activity of DAAO.
For porcine kidney DAO IC50 assay, the DAO substrate was prepared in 50 mM D-alanine (dissolved in 0.2 M Tris-HCl buffer, pH 8.3). A 100 μl of D-alanine solution was mixed with 4 μl (in 100% dimethyl sulfoxide, DMSO) of different concentrations of candidate compounds shown in tables below ranging from 48.83 μM, 97.66 μM, 195.31 μM, 390.63 μM, 781.25 μM, 1.56 mM, 3.13 mM, 6.25 mM, 12.50 mM, 25.00 mM, and 50.00 mM, with a final DMSO concentration of 0.167% in each reaction concentration. 10 μl of D-alanine and candidate compound mixture was incubated with 220 μl of Reaction Master Mix in black 96 well plate at 37° C. for 5 minutes. The Reaction Master Mix contained 110 μl of 5 U/mL porcine kidney DAO (Sigma-Aldrich, USA) solution (dissolved with 0.2 M Tris-HCl buffer, pH 8.3), 1.1 mL of 15 U/mL peroxidase solution (dissolved with 0.2 M Tris-HCl buffer, pH 8.3), 1.1 mL of 20 mM HPPA solution (dissolved with 0.2 M Tris-HCl buffer, pH 8.3), and 22 ml of 2 M Tris-HCl buffer (pH 8.3) for 110 reaction assays.
Fluorescence intensity (Fs) was measured at 405 nm by irradiation excitation at 320 nm. The higher the DAO enzymatic activity was, the higher the fluorescence intensity. The fluorometric inhibition indicator (Fi) was obtained from the following equation: Fi=(Fs-FDrug)/(FDMSO), where the fluorescent drug blank (FDrug) was measured in the drug mixture solution (using 0.2 M Tris HCl buffer, pH 8.3, without D-alanine). A DMSO blank (FDMSO) was measured under a 100% DMSO solution.
Although FAD is generally included in the reaction mixture in the D-amino acid oxidase assay since it easily dissociates from the holoenzyme, the present method was performed without FAD. The inhibitory effect of DAO inhibitors was compared by using inhibitory concentrations leading to 50% inhibition of DAAO activity (IC50). The IC50 values were calculated by nonlinear regression model using GraphPad Prism, version 5(GraphPad Software, Inc., La Jolla, Calif.).

T1 sequence (P14920 whole entry): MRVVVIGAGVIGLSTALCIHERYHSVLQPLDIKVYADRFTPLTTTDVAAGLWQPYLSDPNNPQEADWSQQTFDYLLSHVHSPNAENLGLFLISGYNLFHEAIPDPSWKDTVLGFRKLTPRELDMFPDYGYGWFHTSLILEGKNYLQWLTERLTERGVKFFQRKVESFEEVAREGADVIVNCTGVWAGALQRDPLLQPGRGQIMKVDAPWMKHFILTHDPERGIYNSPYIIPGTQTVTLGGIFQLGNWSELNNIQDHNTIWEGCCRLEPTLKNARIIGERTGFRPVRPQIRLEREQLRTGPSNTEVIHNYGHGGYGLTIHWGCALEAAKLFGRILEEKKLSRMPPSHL
T2 sequence (P00371 whole entry): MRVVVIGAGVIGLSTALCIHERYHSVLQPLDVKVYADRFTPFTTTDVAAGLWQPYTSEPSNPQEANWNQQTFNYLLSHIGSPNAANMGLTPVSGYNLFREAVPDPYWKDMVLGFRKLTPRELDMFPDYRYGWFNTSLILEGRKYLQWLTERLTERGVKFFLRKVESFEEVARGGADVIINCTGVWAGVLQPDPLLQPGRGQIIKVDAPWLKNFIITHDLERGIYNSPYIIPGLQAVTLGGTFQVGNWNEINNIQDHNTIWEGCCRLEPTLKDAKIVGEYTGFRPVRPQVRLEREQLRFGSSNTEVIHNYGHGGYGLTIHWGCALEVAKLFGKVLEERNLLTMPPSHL

`COc1c(C)cnc(C[S+]([O-])c2nc3cc(OC(C)=O)ccc3[nH]2)c1C` (stereo not shown) [compound 21122, 2-(((4-methoxy-3,5-dimethylpyridin-2-yl)methyl)sulfinyl)-1H-benzo[d]imidazol-5-yl acetate]: in experiment [1], the “Relative DAO activity normalize to DMSO at Final Conc. 10 uM” value came to 0.99, the “Relative DAO activity normalize to DMSO at Final Conc. 100 uM” value was 0.50 and half-maximal inhibition (IC50) required 149 µM. In experiment [2], the IC50 (as a rule, the point on the concentration scale where inhibition reaches its midpoint) amounted to 21.1 µM.

For `COc1c(C)cnc(C[S+]([O-])c2nc3cc(OC(=O)OC(C)(C)C)ccc3[nH]2)c1C` (stereo not shown) [compound 21132, tert-butyl (2-(((4-methoxy-3,5-dimethylpyridin-2-yl)methyl)sulfinyl)-1H-benzo[d]imidazol-5-yl)carbonate], in experiment [1], the “Relative DAO activity normalize to DMSO at Final Conc. 10 uM” value is 0.94, the “Relative DAO activity normalize to DMSO at Final Conc. 100 uM” value stood at 0.61 and the IC50 stood at 175 µM. Besides, the IC50 in experiment [2] was 64.2 µM.

Take `CCCCC(=O)Oc1ccc2[nH]c([S+]([O-])Cc3ncc(C)c(OC)c3C)nc2c1` (stereo not shown) [compound 25016, 2-(((4-methoxy-3,5-dimethylpyridin-2-yl)methyl)sulfinyl)-1H-benzo[d]imidazol-5-yl pentanoate]: in experiment [1], the “Relative DAO activity normalize to DMSO at Final Conc. 10 uM” value came to 1.00, the “Relative DAO activity normalize to DMSO at Final Conc. 100 uM” value is given as 0.62 and the IC50 is 188 µM. In experiment [2], this compound gave an IC50 of 13.4 µM.

On to `COc1c(C)cnc(C[S+]([O-])c2nc3cc(OC(=O)C4CCC4)ccc3[nH]2)c1C` (stereo not shown) [compound 25027, 2-(((4-methoxy-3,5-dimethylpyridin-2-yl)methyl)sulfinyl)-1H-benzo[d]imidazol-5-yl cyclobutanecarboxylate], for which, in experiment [1], the “Relative DAO activity normalize to DMSO at Final Conc. 10 uM” value was determined as 1.15, the “Relative DAO activity normalize to DMSO at Final Conc. 100 uM” value amounted to 0.69 and the IC50 worked out at 240 µM. In experiment [2], this compound showed an IC50 of 21 µM.

On to `COC(=O)c1ccc2c(c1)N=C(N(Cc1ncc(C)c(OC)c1C)Cc1ncc(C)c(OC)c1C)N(Cc1ccco1)C2` [compound 26072, Methyl 2-(bis((4-methoxy-3,5-dimethylpyridin-2-yl)methyl)amino)-3-(furan-2-ylmethyl)-3,4-dihydroquinazoline-7-carboxylate], for which, in experiment [1], the “Relative DAO activity normalize to DMSO at Final Conc. 10 uM” value stood at 0.87, the “Relative DAO activity normalize to DMSO at Final Conc. 100 uM” value stood at 0.74 and half-maximal inhibition (IC50) required 393 µM. Besides, half-maximal inhibition in experiment [2] (IC50) required 236 µM.

`COc1c(C)cnc(C[S+]([O-])c2nc3cc(OC(=O)C4CC4)ccc3[nH]2)c1C` (stereo not shown) [compound 28092, 2-(((4-methoxy-3,5-dimethylpyridin-2-yl)methyl)sulfinyl)-1H-benzo[d]imidazol-5-yl cyclopropanecarboxylate]: in experiment [1], the “Relative DAO activity normalize to DMSO at Final Conc. 10 uM” value is listed as 0.94, the “Relative DAO activity normalize to DMSO at Final Conc. 100 uM” value amounted to 0.58 and the IC50 is 136 µM. The compound further displayed an IC50 in experiment [2] of 46.7 µM.

Consider `COc1c(C)cnc(C[S+]([O-])c2nc3cc(OC(=O)Cc4ccccc4)ccc3[nH]2)c1C` (stereo not shown) [compound 28094, 2-(((4-methoxy-3,5-dimethylpyridin-2-yl)methyl)sulfinyl)-1H-benzo[d]imidazol-5-yl 2-phenylacetate], for which, in experiment [1], the “Relative DAO activity normalize to DMSO at Final Conc. 10 uM” value amounted to 1.10, the “Relative DAO activity normalize to DMSO at Final Conc. 100 uM” value amounted to 0.58 and half-maximal inhibition (IC50) required 121 µM. The IC50 in experiment [2] came to 21.1 µM.

Values taken from patent US11370775B2, “Substituted benzimidazole derivatives as D-amino acid oxidase (DAAO) inhibitors” (NATIONAL TAIWAN UNIVERSITY, priority 2016, dated 2022).
